Measurements published in the supplement of paper PMC10307832.

Legend:
Test in all cases: relative viability (nuclei count vs DMSO), 5 days (fraction); higher = more cells survive
[1] = system: NCI-H1993
How it was run: (§1)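 Medians of duplicate plates are given as relative viability. That measure is the nuclei count in treated wells divided by the count in vehicle wells. Counts were taken on 4× images of lung cancer cell lines in 1536-well plates, 5 days after pin-tool dosing the day after seeding with one drug alone or a fixed anchor-drug dose plus five library-drug doses (not always all listed) in √10 steps.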

[2] = system: NCI-H1915
How it was run: as §1

[3] = system: A-427
How it was run: as §1

[4] = system: SK-MES-1
How it was run: as §1

[5] = system: BEN
How it was run: as §1

[6] = system: NCI-H460
How it was run: as §1

[7] = system: NCI-H2405
How it was run: as §1

[8] = system: HCC-366
How it was run: as §1

[9] = system: HOP-62
How it was run: as §1

[10] = system: 201T
How it was run: as §1

[11] = system: LK-2
How it was run: as §1

[12] = system: COR-L 105
How it was run: as §1

[13] = system: EMC-BAC-2
How it was run: as §1

[14] = system: NCI-H661
How it was run: as §1

[15] = system: HCC-15
How it was run: as §1

[16] = system: EKVX
How it was run: as §1

[17] = system: NCI-H1734
How it was run: as §1

[18] = system: NCI-H647
How it was run: as §1

[19] = system: HCC-78
How it was run: as §1

[20] = system: NCI-H522
How it was run: as §1

[21] = system: PC-14
How it was run: as §1

[22] = system: COR-L23
How it was run: as §1

`CN1CCN(CCOc2cc(OC3CCOCC3)c3c(Nc4c(Cl)ccc5c4OCO5)ncnc3c2)CC1` [Saracatinib] + CC(=O)c1c(C)c2cnc(Nc3ccc(N4CCNCC4)cn3)nc2n(C2CCCC2)c1=O [Palbociclib] (partner 0.5 µM) showed a relative viability ([1]; first compound 0.02 µM) of 0.65, a relative viability ([1]; first compound 0.2 µM) of 0.584 and a relative viability ([1]; first compound 0.6325 µM) of 0.701. For the same compound, the relative viability ([1]; first compound 2 µM) was 0.523, the relative viability ([2]; first compound 0.02 µM) was 0.488 and the relative viability ([2]; first compound 0.2 µM) was 0.468. It also gave a relative viability ([2]; first compound 0.6325 µM) of 0.537, a relative viability ([2]; first compound 2 µM) of 0.462 and a relative viability ([3]; first compound 0.02 µM) of 0.531. For the same compound, the relative viability ([3]; first compound 0.2 µM) was 0.457, the relative viability ([3]; first compound 0.6325 µM) was 0.525 and the relative viability ([3]; first compound 2 µM) was 0.506. The relative viability ([4]; first compound 0.02 µM) was 0.3, the relative viability ([4]; first compound 0.2 µM) was 0.31 and the relative viability ([4]; first compound 0.6325 µM) was 0.309. The relative viability ([4]; first compound 2 µM) was 0.256, the relative viability ([5]; first compound 0.02 µM) was 0.513 and the relative viability ([5]; first compound 0.2 µM) was 0.407. The relative viability ([5]; first compound 0.6325 µM) was 0.485, the relative viability ([5]; first compound 2 µM) was 0.435 and the relative viability ([6]; first compound 0.02 µM) was 0.146. For the same compound, the relative viability ([6]; first compound 0.2 µM) was 0.131, the relative viability ([6]; first compound 0.6325 µM) was 0.228 and the relative viability ([6]; first compound 2 µM) was 0.121. It also gave a relative viability ([7]; first compound 0.02 µM) of 0.567, a relative viability ([7]; first compound 0.2 µM) of 0.45 and a relative viability ([7]; first compound 0.6325 µM) of 0.44. The relative viability ([7]; first compound 2 µM) was 0.358, the relative viability ([8]; first compound 0.02 µM) was 0.382 and the relative viability ([8]; first compound 0.2 µM) was 0.176. It also gave a relative viability ([8]; first compound 0.6325 µM) of 0.272, a relative viability ([8]; first compound 2 µM) of 0.164 and a relative viability ([9]; first compound 0.02 µM) of 0.452. For the same compound, the relative viability ([9]; first compound 0.2 µM) was 0.396, the relative viability ([9]; first compound 0.6325 µM) was 0.459 and the relative viability ([9]; first compound 2 µM) was 0.477. For the same compound, the relative viability ([10]; first compound 0.02 µM) was 0.358, the relative viability ([10]; first compound 0.2 µM) was 0.311 and the relative viability ([10]; first compound 0.6325 µM) was 0.323. The relative viability ([10]; first compound 2 µM) was 0.26, the relative viability ([11]; first compound 0.02 µM) was 0.496 and the relative viability ([11]; first compound 0.2 µM) was 0.405. The relative viability ([11]; first compound 0.6325 µM) was 0.528, the relative viability ([11]; first compound 2 µM) was 0.313 and the relative viability ([12]; first compound 0.02 µM) was 0.384. The relative viability ([12]; first compound 0.2 µM) was 0.332, the relative viability ([12]; first compound 0.6325 µM) was 0.38 and the relative viability ([12]; first compound 2 µM) was 0.321. For the same compound, the relative viability ([13]; first compound 0.02 µM) was 0.507, the relative viability ([13]; first compound 0.2 µM) was 0.483 and the relative viability ([13]; first compound 0.6325 µM) was 0.517. It also gave a relative viability ([13]; first compound 2 µM) of 0.511, a relative viability ([14]; first compound 0.02 µM) of 0.393 and a relative viability ([14]; first compound 0.2 µM) of 0.359. It also gave a relative viability ([14]; first compound 0.6325 µM) of 0.395, a relative viability ([14]; first compound 2 µM) of 0.306 and a relative viability ([15]; first compound 0.02 µM) of 0.763. It also gave a relative viability ([15]; first compound 0.2 µM) of 0.677, a relative viability ([15]; first compound 0.6325 µM) of 0.758 and a relative viability ([15]; first compound 2 µM) of 0.753. It also gave a relative viability ([16]; first compound 0.02 µM) of 0.38, a relative viability ([16]; first compound 0.6325 µM) of 0.306 and a relative viability ([16]; first compound 2 µM) of 0.146. For the same compound, the relative viability ([17]; first compound 0.02 µM) was 0.362, the relative viability ([17]; first compound 0.6325 µM) was 0.372 and the relative viability ([17]; first compound 2 µM) was 0.329. It also gave a relative viability ([18]; first compound 0.02 µM) of 0.383, a relative viability ([18]; first compound 0.2 µM) of 0.239 and a relative viability ([18]; first compound 0.6325 µM) of 0.347. It also gave a relative viability ([18]; first compound 2 µM) of 0.265, a relative viability ([19]; first compound 0.02 µM) of 0.461 and a relative viability ([19]; first compound 0.2 µM) of 0.406. It also gave a relative viability ([19]; first compound 0.6325 µM) of 0.45, a relative viability ([19]; first compound 2 µM) of 0.342 and a relative viability ([20]; first compound 0.02 µM) of 0.914. It also gave a relative viability ([20]; first compound 0.2 µM) of 0.802, a relative viability ([20]; first compound 0.6325 µM) of 0.911 and a relative viability ([20]; first compound 2 µM) of 0.756. For the same compound, the relative viability ([21]; first compound 0.02 µM) was 0.471, the relative viability ([21]; first compound 0.2 µM) was 0.217 and the relative viability ([21]; first compound 0.6325 µM) was 0.0934. It also gave a relative viability ([21]; first compound 2 µM) of 0.0848, a relative viability ([22]; first compound 0.02 µM) of 0.278 and a relative viability ([22]; first compound 0.2 µM) of 0.301. For the same compound, the relative viability ([22]; first compound 0.6325 µM) was 0.243 and the relative viability ([22]; first compound 2 µM) was 0.287.

`CN1CCN(CCOc2cc(OC3CCOCC3)c3c(Nc4c(Cl)ccc5c4OCO5)ncnc3c2)CC1` [Saracatinib] + O=C(CCCCCCC(=O)Nc1ccccc1)NO [Vorinostat] (partner 1 µM) showed a relative viability ([1]; first compound 0.02 µM) of 0.806, a relative viability ([1]; first compound 0.2 µM) of 0.651 and a relative viability ([1]; first compound 0.6325 µM) of 0.874. It also gave a relative viability ([1]; first compound 2 µM) of 0.533, a relative viability ([2]; first compound 0.02 µM) of 0.472 and a relative viability ([2]; first compound 0.2 µM) of 0.462. The relative viability ([2]; first compound 0.6325 µM) was 0.477, the relative viability ([2]; first compound 2 µM) was 0.477 and the relative viability ([3]; first compound 0.02 µM) was 0.899. For the same compound, the relative viability ([3]; first compound 0.2 µM) was 0.852, the relative viability ([3]; first compound 0.6325 µM) was 0.795 and the relative viability ([3]; first compound 2 µM) was 0.863. For the same compound, the relative viability ([4]; first compound 0.02 µM) was 1.17, the relative viability ([4]; first compound 0.2 µM) was 1.05 and the relative viability ([4]; first compound 0.6325 µM) was 1.17. For the same compound, the relative viability ([4]; first compound 2 µM) was 0.83, the relative viability ([5]; first compound 0.02 µM) was 0.54 and the relative viability ([5]; first compound 0.2 µM) was 0.57. It also gave a relative viability ([5]; first compound 0.6325 µM) of 0.54, a relative viability ([5]; first compound 2 µM) of 0.576 and a relative viability ([6]; first compound 0.02 µM) of 0.735. The relative viability ([6]; first compound 0.2 µM) was 0.591, the relative viability ([6]; first compound 0.6325 µM) was 0.677 and the relative viability ([6]; first compound 2 µM) was 0.604. For the same compound, the relative viability ([7]; first compound 0.02 µM) was 0.89, the relative viability ([7]; first compound 0.2 µM) was 0.788 and the relative viability ([7]; first compound 0.6325 µM) was 0.847. It also gave a relative viability ([7]; first compound 2 µM) of 0.441, a relative viability ([8]; first compound 0.02 µM) of 0.4 and a relative viability ([8]; first compound 0.2 µM) of 0.135. For the same compound, the relative viability ([8]; first compound 0.6325 µM) was 0.399, the relative viability ([8]; first compound 2 µM) was 0.221 and the relative viability ([9]; first compound 0.02 µM) was 0.624. For the same compound, the relative viability ([9]; first compound 0.2 µM) was 0.611, the relative viability ([9]; first compound 0.6325 µM) was 0.769 and the relative viability ([9]; first compound 2 µM) was 0.618. The relative viability ([10]; first compound 0.02 µM) was 0.971, the relative viability ([10]; first compound 0.2 µM) was 0.868 and the relative viability ([10]; first compound 0.6325 µM) was 0.799. It also gave a relative viability ([10]; first compound 2 µM) of 0.658, a relative viability ([11]; first compound 0.02 µM) of 0.353 and a relative viability ([11]; first compound 0.2 µM) of 0.317. For the same compound, the relative viability ([11]; first compound 0.6325 µM) was 0.224, the relative viability ([11]; first compound 2 µM) was 0.234 and the relative viability ([12]; first compound 0.02 µM) was 0.879. It also gave a relative viability ([12]; first compound 0.2 µM) of 0.668, a relative viability ([12]; first compound 0.6325 µM) of 0.819 and a relative viability ([12]; first compound 2 µM) of 0.625. It also gave a relative viability ([13]; first compound 0.02 µM) of 0.417, a relative viability ([13]; first compound 0.2 µM) of 0.43 and a relative viability ([13]; first compound 0.6325 µM) of 0.417. For the same compound, the relative viability ([13]; first compound 2 µM) was 0.291, the relative viability ([14]; first compound 0.02 µM) was 0.798 and the relative viability ([14]; first compound 0.2 µM) was 0.808. For the same compound, the relative viability ([14]; first compound 0.6325 µM) was 0.81, the relative viability ([14]; first compound 2 µM) was 0.693 and the relative viability ([15]; first compound 0.02 µM) was 0.902. The relative viability ([15]; first compound 0.2 µM) was 0.859, the relative viability ([15]; first compound 0.6325 µM) was 0.931 and the relative viability ([15]; first compound 2 µM) was 0.861. The relative viability ([16]; first compound 0.02 µM) was 0.762, the relative viability ([16]; first compound 0.2 µM) was 0.474 and the relative viability ([16]; first compound 0.6325 µM) was 0.817. For the same compound, the relative viability ([16]; first compound 2 µM) was 0.494, the relative viability ([17]; first compound 0.02 µM) was 0.793 and the relative viability ([17]; first compound 0.6325 µM) was 0.837. It also gave a relative viability ([17]; first compound 2 µM) of 0.652, a relative viability ([18]; first compound 0.02 µM) of 0.612 and a relative viability ([18]; first compound 0.2 µM) of 0.499. For the same compound, the relative viability ([18]; first compound 0.6325 µM) was 0.532, the relative viability ([18]; first compound 2 µM) was 0.45 and the relative viability ([19]; first compound 0.02 µM) was 0.459. The relative viability ([19]; first compound 0.6325 µM) was 0.476, the relative viability ([19]; first compound 2 µM) was 0.427 and the relative viability ([20]; first compound 0.02 µM) was 0.856. It also gave a relative viability ([20]; first compound 0.2 µM) of 0.658, a relative viability ([20]; first compound 0.6325 µM) of 0.897 and a relative viability ([20]; first compound 2 µM) of 0.778. The relative viability ([21]; first compound 0.02 µM) was 0.759, the relative viability ([21]; first compound 0.2 µM) was 0.247 and the relative viability ([21]; first compound 0.6325 µM) was 0.163. The relative viability ([21]; first compound 2 µM) was 0.0854, the relative viability ([22]; first compound 0.02 µM) was 0.361 and the relative viability ([22]; first compound 0.2 µM) was 0.41. It also gave a relative viability ([22]; first compound 0.6325 µM) of 0.469 and a relative viability ([22]; first compound 2 µM) of 0.406.
